In experiment [1] the target is T1, TDO2 (Homo sapiens, UniProt P48775). Nature of the experiment: cell-based.
Method: (§1) The NFK GreenScreen™ (NTRC, Netherlands) uses a specific chemical probe that binds to N-Formylkynurenine (NFK), a product of tryptophan catabolism facilitated by IDO or TDO and causes fluorescence at 510 nm when excited at 410 nm. […] The assay is multiplexed with Cell Titer-Glo® (Promega) to determine if compounds are cytotoxic. […] Cells are counted on a Vi-Cell (Beckman Coulter). SW48 cells are diluted to 1×10^6 cells/ml in assay media. A172 cells are diluted to 0.24×10^6 cells/ml in assay media. […] 5 ul of assay media containing 1.2 mM tryptophan are added to the SW48 cells for a final concentration of 200 uM tryptophan in each well. 5 ul of assay media containing 600 uM tryptophan and 600 ng/ml IFNγ are added to the A172 cells for a final concentration of 100 uM tryptophan and 100 ng/ml IFNγ in each well. The final DMSO concentration is 0.5%. Cell plates are placed at room temperature in a closed TC hood with the blower off to allow cells to settle for approximately 30 min. Plates are then moved to an incubator set at 37° C., 5% CO2 for 24 hours. After the 24 hour compound incubation, 8 ul of NFK green reagent is added to each well with a Multidrop™ Combi dispenser (Thermo Scientific). Plates are sealed and incubated at 37° C., 5% CO2 for 5 hours, then read on a PHERAstar® (BMG labtech). Data are analyzed by normalizing to DMSO and high inhibitor controls. After the plates have been read for NFK green, 25 ul of Cell Titer-Glo® (Promega) are added to each well, incubated for 15 minutes at room temperature, and read on the Envision (Perkin Elmer). Cell Titer-Glo data are analyzed by normalizing to the DMSO controls. Four-parameter curve fitting is used and EC50 data are reported.
Experiment [2] has as its target T2, IDO1 (Homo sapiens, UniProt P14902). The experiment can be described thus: cell-based.
Method: as §1
Experiment [3] concerns the target T2, IDO1.
Method: as §1
Experiment [4] deals with T1, TDO2. The experiment can be described thus: TDO2 cell assay (NFK GreenScreen) in SW48 cells. As to conditions: read-out: TDO2 cell Fluor EC50, NFK GreenScreen fluorescence.
Method: as §1

Where two headings read alike, the source gives them in different places.

T1 sequence (P48775 whole entry): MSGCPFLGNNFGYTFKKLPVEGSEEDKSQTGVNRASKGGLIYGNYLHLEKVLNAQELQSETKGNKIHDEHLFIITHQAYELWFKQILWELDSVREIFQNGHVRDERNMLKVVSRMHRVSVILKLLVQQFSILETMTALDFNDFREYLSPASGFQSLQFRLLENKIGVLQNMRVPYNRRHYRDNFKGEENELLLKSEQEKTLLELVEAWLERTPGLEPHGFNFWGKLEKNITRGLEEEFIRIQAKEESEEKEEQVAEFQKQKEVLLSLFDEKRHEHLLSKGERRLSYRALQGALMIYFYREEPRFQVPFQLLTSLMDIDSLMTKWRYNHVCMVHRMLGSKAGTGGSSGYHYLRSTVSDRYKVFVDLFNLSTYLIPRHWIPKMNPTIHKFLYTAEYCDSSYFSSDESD
T2 sequence (P14902 whole entry): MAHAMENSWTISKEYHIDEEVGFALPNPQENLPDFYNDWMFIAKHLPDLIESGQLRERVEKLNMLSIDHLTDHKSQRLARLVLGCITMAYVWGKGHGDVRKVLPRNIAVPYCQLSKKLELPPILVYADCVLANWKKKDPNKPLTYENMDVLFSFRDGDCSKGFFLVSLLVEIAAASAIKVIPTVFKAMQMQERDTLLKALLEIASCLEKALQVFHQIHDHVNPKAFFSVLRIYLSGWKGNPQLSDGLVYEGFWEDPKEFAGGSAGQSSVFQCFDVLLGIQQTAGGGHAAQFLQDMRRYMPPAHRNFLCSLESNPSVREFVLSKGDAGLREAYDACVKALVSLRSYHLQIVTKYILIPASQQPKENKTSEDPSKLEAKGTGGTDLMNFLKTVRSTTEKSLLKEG

Regarding `CNS(=O)(=O)c1cccc(C2c3ccccc3-c3cncn32)c1` (centres unmarked) [Example 12, 3-(5H-imidazo[5,1-a]isoindol-5-yl)-N-methylbenzenesulfonamide], the EC50 – broadly, the concentration giving half of the maximal effect – worked out at 1.8 µM in experiment [1] and 11 µM in experiment [2].

With `c1ccc2c(c1)-c1cncn1C2C1CCOCC1` (centres unmarked) [Example 14, 5-(tetrahydro-2H-pyran-4-yl)-5H-imidazo[5,1-a]isoindole], the values for the EC50 in experiment [1] and in experiment [2] were 0.81 µM and 15 µM, respectively.

Consider `CS(=O)(=O)N1CCC(C2c3ccccc3-c3cncn32)CC1` (centres unmarked) [Example 16, 5-(1-(methylsulfonyl)piperidin-4-yl)-5H-imidazo[5,1-a]isoindole], for which the 50% effective concentration (EC50) in experiment [1] was 0.15 µM; in experiment [2] it was 0.93 µM.

Consider `N#Cc1cccc(C2c3ccccc3-c3cncn32)c1` (centres unmarked) [Example 17, 3-(5H-imidazo[5,1-a]isoindol-5-yl)benzonitrile], for which the values for the EC50 in experiment [1] and in experiment [2] were 2 µM and 16 µM, respectively.

Take `O=C(C1CC1)N1CCC(C2c3ccccc3-c3cncn32)CC1` (centres unmarked) [Example 18, (4-(5H-imidazo[5,1-a]isoindol-5-yl)piperidin-1-yl)(cyclopropyl)methanone]: the EC50 in experiment [1] amounted to 9.6 µM; in experiment [2] it was 19 µM.

On to `c1ccc2c(c1)-c1cncn1[C@@H]2C1CCCCC1` [Example 19a], for which the figures for the EC50 in experiment [1] and in experiment [2] were 17 µM and 10 µM, respectively.

With `c1ccc2c(c1)-c1cncn1[C@H]2C1CCCCC1` [Example 19b], the EC50 in experiment [3] came to 0.416 µM; in experiment [4] it was 0.033 µM.

For `Cc1cccc(C2c3ccccc3-c3cncn32)c1` (centres unmarked) [Example 21, 5-(m-tolyl)-5H-imidazo[5,1-a]isoindole], the values for the EC50 in experiment [1] and in experiment [2] were 0.36 µM and 9.7 µM, respectively.

Take `c1ccc2c(c1)-c1cncn1C2C1CCC2(CC1)OCCO2` (centres unmarked) [Example 26, 5-(1,4-dioxaspiro[4.5]decan-8-yl)-5H-imidazo[5,1-a]isoindole]: the EC50 in experiment [1] turned out to be 3.2 µM; in experiment [2], 9.7 µM.

For `Fc1cccc(C2c3ccccc3-c3cncn32)c1` (centres unmarked) [Example 30, 5-(3-fluorophenyl)-5H-imidazo[5,1-a]isoindole], the EC50 in experiment [1] came out at 0.34 µM; in experiment [2], 5 µM.

For the compound `c1ccc2c(c1)-c1cncn1C2C1CCC1` (centres unmarked) [Example 34, 5-cyclobutyl-5H-imidazo[5,1-a]isoindole], the EC50 in experiment [1] is 0.99 µM; in experiment [2], 2.4 µM.

In the case of `c1ccc2c(c1)-c1cncn1C2C1CC2(COC2)C1` (centres unmarked) [Example 39, 5-(2-oxaspiro[3.3]heptan-6-yl)-5H-imidazo[5,1-a]isoindole], the EC50 in experiment [1] is 0.59 µM; in experiment [2] it was 11 µM.

In the case of `Fc1cc(Cl)cc(C2c3ccccc3-c3cncn32)c1` (centres unmarked) [Example 40, 5-(3-chloro-5-fluorophenyl)-5H-imidazo[5,1-a]isoindole], the values for the EC50 in experiment [1] and in experiment [2] were 0.29 µM and 3.8 µM, respectively.

Consider `Fc1cc(F)cc(C2c3ccccc3-c3cncn32)c1` (centres unmarked) [Example 45, 5-(3,5-difluorophenyl)-5H-imidazo[5,1-a]isoindole], for which the EC50 is 0.14 µM in experiment [1] and 1.9 µM in experiment [2].

Consider `c1ccc2c(c1)-c1cncn1C2C1CCc2ccncc2C1` (centres unmarked) [Example 46, 5-(5,6,7,8-tetrahydroisoquinolin-7-yl)-5H-imidazo[5,1-a]isoindole], for which the EC50 was 0.027 µM in experiment [1] and 2 µM in experiment [2].

`NC(=O)c1cc(F)cc(C2c3ccccc3-c3cncn32)c1` (centres unmarked) [Example 51, 3-fluoro-5-(5H-imidazo[5,1-a]isoindol-5-yl)benzamide]: the EC50 in experiment [1] came out at 0.12 µM; in experiment [2] it was 3.1 µM.

As for `CC(C)CC1c2ccccc2-c2cncn21` (centres unmarked) [Example 53, 5-isobutyl-5H-imidazo[5,1-a]isoindole], the EC50 in experiment [1] came to 0.87 µM; in experiment [2], 4.4 µM.

On to `Cn1ncc2cc(C3c4ccccc4-c4cncn43)ccc21` (centres unmarked) [Example 55b], for which the results for the EC50 in experiment [1] and in experiment [2] were 0.78 µM and 8.1 µM, respectively.

Turning to `CS(=O)(=O)c1ccc(C2c3ccccc3-c3cncn32)cc1` (centres unmarked) [Example 56, 5-(4-(methylsulfonyl)phenyl)-5H-imidazo[5,1-a]isoindole], the EC50 stood at 0.64 µM in experiment [1] and 4.6 µM in experiment [2].

Consider `CC(C)(C)OC(=O)N1CCC2(CC1)CC(C1c3ccccc3-c3cncn31)C2` (centres unmarked) [Example 57, tert-butyl 2-(5H-imidazo[5,1-a]isoindol-5-yl)-7-azaspiro[3.5]nonane-7-carboxylate], for which the results for the EC50 in experiment [1] and in experiment [2] were 1.5 µM and 0.91 µM, respectively.

For `CS(=O)(=O)N1CCC2(CC1)CC(C1c3ccccc3-c3cncn31)C2` (centres unmarked) [Example 59, 5-(7-(methylsulfonyl)-7-azaspiro[3.5]nonan-2-yl)-5H-imidazo[5,1-a]isoindole], the EC50 in experiment [1] worked out at 0.24 µM; in experiment [2], 1.5 µM.

`NS(=O)(=O)N1CCCC(C2c3ccccc3-c3cncn32)C1` (centres unmarked) [Example 64, 3-(5H-imidazo[5,1-a]isoindol-5-yl)piperidine-1-sulfonamide]: the EC50 in experiment [1] was 0.41 µM; in experiment [2], 4.4 µM.

Consider `Fc1cc(C2c3ccccc3-c3cncn32)cc(F)c1F` (centres unmarked) [Example 65, 5-(3,4,5-trifluorophenyl)-5H-imidazo[5,1-a]isoindole], for which the EC50 in experiment [1] came to 0.21 µM; in experiment [2] it was 1.9 µM.

Take `NS(=O)(=O)N1CC2(CC(C3c4ccccc4-c4cncn43)C2)C1` (centres unmarked) [Example 66, 6-(5H-imidazo[5,1-a]isoindol-5-yl)-2-azaspiro[3.3]heptane-2-sulfonamide]: the EC50 stood at 1.1 µM in experiment [1] and 20 µM in experiment [2].

For `CC1(C)CC(C2c3ccccc3-c3cncn32)C1` (centres unmarked) [Example 67, 5-(3,3-dimethylcyclobutyl)-5H-imidazo[5,1-a]isoindole], the concentration for a half-maximal effect (EC50) in experiment [1] is 0.21 µM; in experiment [2], 0.9 µM.

Take `CC1(O)CCC(C2c3ccccc3-c3cncn32)CC1` (centres unmarked) [Example 70, 4-(5H-imidazo[5,1-a]isoindol-5-yl)-1-methylcyclohexan-1-ol]: the EC50 in experiment [1] was determined as 0.18 µM; in experiment [2] it was 0.86 µM.

As to `CS(=O)(=O)N1CCCC(C2c3ccccc3-c3cncn32)C1` (centres unmarked) [Example 71, 5-(1-(methylsulfonyl)piperidin-3-yl)-5H-imidazo[5,1-a]isoindole], the EC50 in experiment [1] was 0.56 µM; in experiment [2], 14 µM.

`CS(=O)(=O)N1CC2CC(C3c4ccccc4-c4cncn43)CC2C1` (centres unmarked) [Example 75a, 5-(2-(methylsulfonyl)octahydrocyclopenta[c]pyrrol-5-yl)-5H-imidazo[5,1-a]isoindole]: the EC50 was 2.1 µM in experiment [1] and 7.6 µM in experiment [2].

For the compound `CC(C)(C)OC(=O)N1CC2(CCC(C3c4ccccc4-c4cncn43)CC2)C1` (centres unmarked) [Example 76, tert-butyl 7-(5H-imidazo[5,1-a]isoindol-5-yl)-2-azaspiro[3.5]nonane-2-carboxylate], the EC50 in experiment [1] was found to be 1.8 µM; in experiment [2], 0.14 µM.

As for `O=S(=O)(N1CCC1)N1CCC(C2c3ccc(F)cc3-c3cncn32)CC1` (centres unmarked) [Example 88, 5-(1-(azetidin-1-ylsulfonyl)piperidin-4-yl)-8-fluoro-5H-imidazo[5,1-a]isoindole], the EC50 in experiment [1] was 0.9 µM; in experiment [2] it was 5.3 µM.

Consider `O=S(=O)(NC1CC1)N1CCC(C2c3ccc(F)cc3-c3cncn32)CC1` (centres unmarked) [Example 89, N-cyclopropyl-4-(8-fluoro-5H-imidazo[5,1-a]isoindol-5-yl)piperidine-1-sulfonamide], for which the EC50 in experiment [1] stood at 0.22 µM; in experiment [2] it was 5.9 µM.

`CS(=O)(=O)N1CC2C(C1)C2C1c2ccccc2-c2cncn21` (centres unmarked) [Example 93, 5-(3-(methylsulfonyl)-3-azabicyclo[3.1.0]hexan-6-yl)-5H-imidazo[5,1-a]isoindole]: the EC50 in experiment [1] was found to be 0.77 µM; in experiment [2] it was 8.6 µM.

As to `O=S1(=O)NCC2CC(C3c4ccccc4-c4cncn43)CCN21` (centres unmarked) [Example 94, 5-(5H-imidazo[5,1-a]isoindol-5-yl)hexahydro-2H-[1,2,5]thiadiazolo[2,3-a]pyridine 1,1-dioxide], the EC50 in experiment [1] amounted to 0.42 µM; in experiment [2], 7.1 µM.

Take `NS(=O)(=O)N1CC2C(C1)C2C1c2ccccc2-c2cncn21` (centres unmarked) [Example 96, 6-(5H-imidazo[5,1-a]isoindol-5-yl)-3-azabicyclo[3.1.0]hexane-3-sulfonamide]: the EC50 in experiment [1] was 0.39 µM; in experiment [2], 9 µM.

The values above are taken from patent US11827639B2, “TDO2 and IDO1 inhibitors” (Genentech, Inc., priority 2017, dated 2023).
